Biological target: T1, hP2X7 (Homo sapiens, UniProt Q99572)
T1 construct: expressed in transfected cells; host or cells: HEK-293, stably transfected (gift of E. Adinolfi's group, Ferrara University)
T1 sequence (Q99572 1-595): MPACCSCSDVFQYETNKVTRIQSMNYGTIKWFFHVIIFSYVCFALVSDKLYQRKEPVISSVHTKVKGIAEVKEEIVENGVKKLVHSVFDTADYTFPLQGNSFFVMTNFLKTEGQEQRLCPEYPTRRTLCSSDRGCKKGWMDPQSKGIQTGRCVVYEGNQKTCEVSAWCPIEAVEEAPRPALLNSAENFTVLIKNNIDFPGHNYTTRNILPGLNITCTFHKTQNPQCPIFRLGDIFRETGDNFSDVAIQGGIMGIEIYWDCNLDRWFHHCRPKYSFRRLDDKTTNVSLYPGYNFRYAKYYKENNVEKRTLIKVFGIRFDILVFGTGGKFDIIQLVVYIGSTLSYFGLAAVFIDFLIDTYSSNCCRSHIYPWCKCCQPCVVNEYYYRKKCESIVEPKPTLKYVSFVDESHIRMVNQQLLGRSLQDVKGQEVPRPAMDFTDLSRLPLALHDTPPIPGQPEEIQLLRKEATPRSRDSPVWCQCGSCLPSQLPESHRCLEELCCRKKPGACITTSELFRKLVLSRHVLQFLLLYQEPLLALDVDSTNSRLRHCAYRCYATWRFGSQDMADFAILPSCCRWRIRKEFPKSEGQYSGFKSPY
Experiment: YO-PRO 1 dye uptake assay, 1321 N1 cells stably transfected with hP2X7
Type: cell-based
Conditions: for activity in YO-PRO 1 dye uptake screen / reduction of P2X7 activation: compound 30 μM, 700 μM ATP; for reduction of P2X7 activation: 0.3% DMSO
Description: Astrocytoma 1321 N1 (established by Dr. Gaia Pasqualetto) and HEK-293 (kindly gifted by E. Adinolfi’s group, Ferrara University) both stably transfected with hP2X7, were used to assess the activity of the small molecules selected from the VS. Cells were maintained in DMEM:F12 (PanBiotech) supplemented with 10% FBS, 1% pen-strep, and 150 μg/mL G418 (PanBiotech).
Astrocytoma 1321 N1 cells (2–2.5 × 10^4 cells/well) and HEK-293 cells (4–5 × 10^4 cells/well) expressing hP2X7 were seeded in poly-L-lysine-coated 96-well plates (Sarstedt) 24 h before the experiment. YO-PRO 1 dye was prepared at 5 μM in extracellular solution with low divalent cations (ECS-LD) buffer (147 mM NaCl, 10 mM HEPES, 13 mM glucose, 0.2 mM CaCl2, 2 mM KCl, pH 7.4) and added to cells after washing them with Dulbecco’s phosphate- buffered saline (DPBS) (PanBiotech) and incubated for 20 min at 37 °C. ATP-induced dye uptake, mediated by hP2X7 activation, was monitored using a Clariostar plate reader (excitation: 485 nm; emission: 538 nm) for 30 cycles (75–150 s/cycle), after recording the baseline for five cycles. hP2X7 activation was quantified at cycle 10 by calculating the fluorescence intensity (FI) ratio (Δ(Fcycle 10–F cycle 1)/cycle time).
The P2X7 receptor, besides being a ligand-gated ion channel, forms large membrane pores following prolonged exposure to high concentrations of ATP, leading to apoptosis (Mackenzie et al. 2005). The YO-PRO 1 dye uptake assay, which measures dye influx through these pores, was selected as the primary screen. The fluorescence of YO-PRO 1 increases when it binds to DNA, enabling real-time monitoring of P2X7 activation (calculated as the rate of increase in fluorescence as YO-PRO 1 binds nuclear DNA).
The screening compounds were tested at 30 μM (0.3% DMSO) in 5 μM YO-PRO 1 dye diluted in freshly prepared ECS-LD buffer. Cells pretreated with the screening compounds were challenged with 700 μM ATP, and the fluorescence intensities were recorded. The negative control consisted of cells treated with 0.3% DMSO, while the positive control was 0.1 μM JNJ47965567, a selective P2X7 antagonist. ,
2 Initial screening assays to identify hit compounds. (A) The compounds were screened at 30 μM in the YO-PRO 1 dye uptake using 1321 N1 cells stably transfected with hP2X7. Compound activity was evaluated along a time of 20 min (75 s per cycle) after ATP addition (700 μM). The fluorescence intensity (FI) values of the first 10 cycles were considered for assessing their ability to inhibit hP2X7. Compound responses were normalized to the fluorescent signal recorded on 0.3% DMSO cells treated with 700 μM ATP of each plate. […] (B) Compounds screened at 10 μM using MPR using 1321 N1 cells stably transfected with hP2X7. The compound activity was evaluated for 5 min after ATP addition (15 s per cycle). The fluorescence intensity recorded in the first cycles (before reaching a plateau response) was considered for assessing the small molecule’s ability to inhibit hP2X7. Compound responses were normalized to the fluorescence signal recorded on 0.1% DMSO cells treated with 700 μM ATP of each plate. […] One-way ANOVA and Dunnet test were used for statistical analysis (****P < 0.0001), (*P < 0.02).

SMILES | activity in YO-PRO 1 dye uptake screen | reduction of P2X7 activation | Hill Slope of ATP concentration-response curve (YO-PRO 1 uptake, 1321 N1 hP2X7 cells) | EC50 (YO-PRO 1 uptake, 1321 N1 hP2X7 cells, ATP 1 μM to 10 mM) [µM]
O=C(NCCc1ccccc1)NC(Cc1ccc2c(c1)OCO2)Cc1ccc2c(c1)OCO2 [Compound 2] | antagonist activity | at least 50% |  | 
Nc1ncnc2c1ncn2[C@@H]1O[C@H](COP(=O)(O)OP(=O)(O)OP(=O)(O)O)[C@@H](O)[C@H]1O [ATP, reference compound] |  |  | 1.161 | 697 ± 203
O=C(CSc1ccccc1C(=O)Nc1ccnn1Cc1cccnc1)Nc1ccc2c(c1)OCO2 [Compound 9] | antagonist activity | at least 50% |  | 

Source: PMC12264943, “Identification of New Human P2X7 Antagonists Using Ligand- and Structure-Based Virtual Screening” (Journal of Chemical Information and Modeling, 2025)
